Assay results taken from PubChem BioAssay (NCI).
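Compound exposure: 48 hours, 5 concentrations, 96-well plates. TGI denotes the concentration required for complete inhibition of growth.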

Key:
Test in all cases: growth of human tumour cells (NCI), 48 h
DLD-1 colon = test system: DLD-1 colon
ACHN renal = test system: ACHN renal
DU-145 prostate = test system: DU-145 prostate
MDA-MB-435 = test system: MDA-MB-435
MDA-MB-231 breast = test system: MDA-MB-231 breast
SR leukemia = test system: SR leukemia

CC(C)(C)N1C(C(=O)c2ccccc2)C1c1ccccc1 (stereo unspecified) showed a TGI (DLD-1 colon) greater than 100 µM.

C=CC[N+]12CN3CN(CN(C3)C1)C2 gave a TGI (ACHN renal) of 46 µM, a TGI (DU-145 prostate) of 46.9 µM and a TGI (MDA-MB-435) of 37.4 µM. It also gave a TGI (MDA-MB-231 breast) of 91.3 µM.

With COc1ccc(C[C@H](N)C(=O)NC2C(CO)OC(n3cnc4c(N(C)C)ncnc43)C2O)cc1 (stereo partly specified) the TGI (SR leukemia) was 0.595 µM.
